Results reported in patent publication US10065965B2, “Imidazo[1,2-B][1,2,4]triazine derivatives as antiparasitic agents” (GlaxoSmithKline Intellectual Property Development Limited, priority 2015, dated 2018).
In brackets after ≈: the same amount, converted by molar mass.

Tests used:
[1] = Assay 4 solubility assay, ChemiLuminescent Nitrogen Detection (CLND); assay type: physicochemical; conditions: phosphate buffered saline, pH 7.4, aqueous buffer, kinetic from dmso stock, pH 7.4 PBS, from 10 mM DMSO stock, 1 h at room temperature
Method: A 10 mM DMSO stock solution of the compound was prepared. Solvents and Buffers Organic solvents of HPLC grade were used. Ultra pure water (Milli-Q grade) was used. Buffers were prepared with ultra pure water and filtered using 0.45μ cameo filters. Aqueous Buffer Solution: Phosphate Buffer Saline (PBS) @ pH 7.4 was prepared from Sigma dry powder packs, P-3813. Each one was diluted to 1 liter with deionised water. The pH was checked before the solution was used II. Procedures. • a) DMSO concentration was measured. DMSO blanks and ondansetron and caffeine standards were added to the plate (column 12, A, B, C, & D for the blanks and E, F, G, & H for the standards). Plates were covered with foil. When the UV and CLND detectors baselines appeared to be stable, the CLND was zeroed. • b) Once DMSO concentration measurements were complete, a filtration plate was prepared from each parent plate by diluting 5 μl of the 10 mM DMSO stock solution to […] with pH7.4 PBS. • c) After the plates were prepared, they were covered with a plate lid and left to incubate for 1 h at room temperature. • d) Sample was filtered using MILLIPORE MultiScreen Solubility (MSSLBPC10) Filtration Plates, to NUNC V well plates. The filter plate was removed and the NUNC plate was sealed with a power seal plate seal. • e) HPLC/CLND instruments were set up and left to equilibrate. Mobile phases (MeOH:H2O 1:1, flow rate: 0.2 ml/min, sensitivity z10, Gain High). The samples were run. • f) The assay curve fit was done by linear regression and solubility values were reported in μM.

Trypanosoma cruzi [2] = experiment: Assay 2 Trypanosoma cruzi intracellular assay (infected Vero cells); assay type: cell-based; conditions: 72 h, read-out: pEC50 value against Trypanosoma cruzi (converted)
Method: Compounds were dispensed into black 384-well assay plates (Corning) by acoustic dispensing (LabCyte ECHO). For potency determinations, ten-point one in three dilution curves were generated, with a top concentration of 50 μM. Vero cells were infected overnight with T. cruzi trypomastigotes in T225 tissue culture flasks at a multiplicity of infection of 5. Next, any remaining free trypomastigotes were washed away with serum free MEM media and the infected Vero cells were harvested by trypsinisation. The infected Vero cells were then plated into 384-well plates containing the compounds to be tested, at 4000 cells per well in MEM media with 1% FCS. After 72 h incubation at 37° C. in presence of 5% CO2, the plates were fixed with 4% formaldehyde for 20 minutes at room temperature and stained with 5 μg/ml Hoechst 33342. The plates were imaged on a Perkin Elmer Operetta high-content imaging system using a 20× objective. Images were analysed using the Columbus system (Perkin Elmer). The image analysis algorithm first identified the Vero nuclei followed by demarcation of the cytoplasm and identification of intracellular amastigotes. This algorithm reported mean number of parasites per Vero cell and total number of Vero cells.

Trypanosoma cruzi [3] = experiment: Assay 6 Trypanosoma cruzi intracellular assay (infected H9C2 cells); assay type: cell-based; conditions: H9c2, in Rattus norvegicus, 72 h, infected H9C2 rat cardiomyocytes, read-out: pEC50 value against Trypanosoma cruzi (converted)
Method: Compounds were dispensed into black 384-well assay plates (Greiner) by acoustic dispensing (LabCyte ECHO). For potency determinations, eleven-point, one in three dilution curves were generated, with a top concentration of 50 μM. H9C2 rat cardiomyocytes cells were dispensed in T225 tissue culture flasks and after 4 hours they were infected during 18 hours with T. cruzi trypomastigotes in the same T225 tissue culture flasks at a multiplicity of infection of 1. Next, any remaining free trypomastigotes were washed away with PBS and the infected H9C2 cells were harvested by trypsinisation. The infected H9C2 cells were then plated into 384-well plates containing the compounds to be tested, at 2500 cells per well in DMEM media with 2% FBS, 1% Penicillin/Streptomocin, 2 mM L-Glutamine, 1 mM Na Pyruvate and 25 mM HEPES. After 72 h incubation at 37° C. in presence of 5% CO2, the plates were fixed and stained with 4% formaldehyde and 2 μM Draq5 for 3 hours at room temperature. The plates were imaged on a Perkin Elmer Opera high-content imaging system using a 20× air objective. Images were analysed using the Acapella building blocks system (Perkin Elmer). The image analysis algorithm first identified the H9C2 nuclei followed by demarcation of the cytoplasm and identification of intracellular amastigotes. This algorithm reported mean number of parasites per H9C2 cell, the percentage of infected H9C2 cells and the total number of H9C2 cells.

[4] = Assay 1 intramacrophage Leishmania donovani assay, THP-1 cell count (cytotoxicity readout); assay type: cell-based; conditions: human, minimum threshold 4.3, read-out: cytotoxicity against THP-1 cells, pEC50 value (converted)
Method: (§1) The intramacrophage Leishmania assay was performed using a modified version of the method described in De Rycker et al. (Antimicrob Agents Chemother. 2013 July; 57(7):2913-22. Comparison of a high-throughput high-content intracellular Leishmania donovani assay with an axenic amastigote assay. De Rycker M, Hallyburton I, Thomas J, Campbell L, Wyllie S, Joshi D, Cameron S, Gilbert I H, Wyatt P G, Frearson J A, Fairlamb A H, Gray D W.). Procedure: 350 nl of compound was pre-dispensed into 384 well sterile intermediary plates. For single point screening, amphotericin B was added to all wells of column 24 as a positive control (final concentration 2 μM) and DMSO to column 23. For potency determinations, ten-point, one in three dilution curves were created with the highest concentration being 50 μM and on each plate a control curve of amphotericin B was included. Controls were as follows: columns 11 and 12: DMSO, columns 23 and 24: amphotericin B (final concentration 2 μM). To the intermediary plates, 35 μl of THP-1 media was added and plates were shaken for >5 min to ensure complete mixing. THP-1 cells (8,000 per well, 50 μl) were plated into black clear-bottom 384 well plates (Corning) in presence of 20 nM PMA. After 20 min at RT, the plates were incubated at 37° C. under 5% CO2 in a humidified incubator for 75 h. The cells were then washed with […] sterile phosphate buffered saline (PBS) supplemented with 1 mM CaCl2, 0.5 mM MgCl2, 0.1% (w/v) bovine serum albumin (PBS-A) and amastigotes were added to all wells at a multiplicity of infection of 5 (40,000 amastigotes per well). After 40 min at RT, plates were returned to the incubator. Amastigotes were incubated in the presence of THP-1 macrophages for 16 h. Any remaining extracellular amastigotes were subsequently removed with an overflow wash of 1 mL PBS-A per well (wash buffer is being aspirated from the top of the well as it is being dispensed) followed by addition of 25 μl of the compound pre-dilutions using a Fluidx Ipette-pro pipetting station. The final dilution of each compound was 200-fold. Plates were incubated for 96 h and then washed (250 μl PBS-A) and fixed (4% (v/v) formaldehyde-PBS, 30 min, RT). After fixation, the wells were washed with 250 μl PBS, stained (10 μg/mL DAPI, 0.4 μg mL-1 HCS Cellmask Deep Red in PBS+0.1% (v/v) Triton X-100, 30 min, RT) and washed with 250 μl PBS. Finally, PBS+0.05% (v/v) thimerosal was added to the wells, the plates were sealed and imaged on a high-content microscope (GE IN Cell 2000) using a 10× objective. Image analysis was carried out with GE IN Cell Analyzer 1000 Workstation using the “Multi Target Analysis” module. Settings for segmentation were as follows: nuclei: minimum area: 142.384 μm2, sensitivity: 81, method: top-hat; cells: characteristic area: 2500 μm2, sensitivity: 60, method: multiscale top-hat; organelles (amastigotes): granule size 1-3, 3 scales, sensitivity: 90, detection in entire cell. For each well, i) THP-1 cell count (cytotoxicity readout) and ii) average number of amastigotes per cell (potency readout) were calculated, both in terms of pEC50 values.

Leishmania donovani = experiment: Assay 1 intramacrophage Leishmania donovani assay (potency readout); assay type: cell-based; conditions: amastigotes in PMA-treated THP-1 macrophages, 96 h, average number of amastigotes per cell, minimum threshold 4.3, read-out: pEC50 value against Leishmania donovani (converted)
Method: as §1

| SMILES | solubility at 1 h [1] [µM] | EC50 (Trypanosoma cruzi [2]) [nM] | EC50 (Leishmania donovani) [nM] | EC50 (Trypanosoma cruzi [3]) [nM] | EC50 at 96 h [4] [nM] |
| --- | --- | --- | --- | --- | --- |
| CC1CN(c2cnc3nc(-c4cc(NC(=O)N5CCCC5)ccc4F)cn3n2)CCO1 (racemic) [Example 5, (+,−)-N-(4-fluoro-3-(2-(2-methylmorpholino)imidazo[1,2-b][1,2,4]triazin-6-yl)phenyl)pyrrolidine-1-carboxamide] | 10 to 83 (≈ 4.25 to 35.3 µg/mL) | 20 to 251 | – | 5.01 to 631 | – |
| C[C@@H]1CN(c2cnc3nc(-c4cc(NC(=O)N5CCCC5)ccc4F)cn3n2)C[C@H](C)O1 (single isomer, unassigned) [Example 6] | 10 to 83 (≈ 4.39 to 36.5 µg/mL) | 20 to 251 | – | 5.01 to 631 | – |
| O=C(Nc1ccc(F)c(-c2cn3nc(-c4ccccc4)cnc3n2)c1)N1CCCC1 [Example 2, N-(4-fluoro-3-(2-phenylimidazo[1,2-b][1,2,4]triazin-6-yl)phenyl)pyrrolidine-1-carboxamide] | 10 to 83 (≈ 4.02 to 33.4 µg/mL) | 20 to 251 | – | 5.01 to 631 | – |
| O=C(Nc1ccc(F)c(-c2cn3nc(N4CCCC4)cnc3n2)c1)N1CCCC1 [Example 3, N-(4-fluoro-3-(2-(pyrrolidin-1-yl)imidazo[1,2-b][1,2,4]triazin-6-yl)phenyl)pyrrolidine-1-carboxamide] | 10 to 83 (≈ 3.95 to 32.8 µg/mL) | 20 to 251 | – | 5.01 to 631 | – |
| O=C(Nc1ccc(F)c(-c2cn3nc(N4CCCCC4)cnc3n2)c1)N1CCCC1 [Example 4, N-(4-fluoro-3-(2-(piperidin-1-yl)imidazo[1,2-b][1,2,4]triazin-6-yl)phenyl)pyrrolidine-1-carboxamide] | 10 to 83 (≈ 4.09 to 34 µg/mL) | 20 to 251 | – | 5.01 to 631 | – |
| COc1ccc(CNc2cnc3nc(-c4cc(NC(=O)N5CCCC5)ccc4F)cn3n2)cc1 [Example 50, N-(4-fluoro-3-(2-((4-methoxybenzyl)amino)imidazo[1,2-b][1,2,4]triazin-6-yl)phenyl) pyrrolidine-1-carboxamide] | – | – | – | 5.01 to 631 | 3980 to 15800 |
| O=C(Nc1ccc(F)c(-c2cn3nc(-c4ccc(O)cc4)cnc3n2)c1)N1CCCC1 [Example 51, N-(4-fluoro-3-(2-(4-hydroxyphenyl)imidazo [1,2-b][1,2,4]triazin-6-yl)phenyl)pyrrolidine-1-carboxamide] | – | – | – | 5.01 to 631 | 3980 to 15800 |
| CN1CCN(Cc2ccc(-c3cnc4nc(-c5cc(NC(=O)N6CCCC6)ccc5F)cn4n3)cc2)CC1 [Example 59, N-(4-fluoro-3-(2-(4-((4-methylpiperazin-1-yl)methyl)phenyl)imidazo [1,2-b][1,2,4]triazin-6-yl)phenyl)pyrrolidine-1-carboxamide] | – | – | – | – | 3980 to 15800 |

Continued, in another order:

| solubility at 1 h [1] [µM] | EC50 (Trypanosoma cruzi [2]) [nM] | EC50 (Leishmania donovani) [nM] | SMILES | EC50 (Trypanosoma cruzi [3]) [nM] | EC50 at 96 h [4] [nM] |
| --- | --- | --- | --- | --- | --- |
| – | 20 to 251 | – | O=C(Nc1ccc(F)c(-c2cn3nccnc3n2)c1)N1CCCC1 [Example 8, N-(4-fluoro-3-(imidazo[1,2-b][1,2,4]triazin-6-yl)phenyl)pyrrolidine-1-carboxamide] | – | – |
| 1 to 6 (≈ 0.502 to 3.01 µg/mL) | – | – | O=C(Nc1ccc(F)c(-c2cn3nc(-c4ccc(CN5CCOCC5)cc4)cnc3n2)c1)N1CCCC1 [Example 18, N-(4-fluoro-3-(2-(4-(morpholinomethyl)phenyl)imidazo[1,2-b] [1,2,4]triazin-6-yl)phenyl)pyrrolidine-1-carboxamide] | 5.01 to 631 | 3980 to 15800 |
| 1 to 6 (≈ 0.502 to 3.01 µg/mL) | – | – | O=C(Nc1ccc(F)c(-c2cn3nc(-c4cccc(CN5CCOCC5)c4)cnc3n2)c1)N1CCCC1 [Example 19, N-(4-fluoro-3-(2-(3-(morpholinomethyl)phenyl)imidazo[1,2-b] [1,2,4]triazin-6-yl)phenyl)pyrrolidine-1-carboxamide] | 5.01 to 631 | 3980 to 15800 |
| – | 25100 | > 50100 | Cc1nn(C)cc1S(=O)(=O)Nc1ccc(F)c(-c2cn3nc(N4CCOCC4)cnc3n2)c1 [Example 34, N-(4-fluoro-3-(2-morpholinoimidazo [1,2-b][1,2,4]triazin-6-yl)phenyl)-1,3-dimethyl-1H-pyrazole-4-sulfonamide] | 10000 to 39800 | – |
| – | – | > 50100 | CCOC(=O)Nc1ccc(F)c(-c2cn3nc(N4CCOCC4)cnc3n2)c1 [Example 52, ethyl (4-fluoro-3-(2-morpholinoimidazo [1,2-b][1,2,4]triazin-6-yl)phenyl)carbamate] | 5.01 to 631 | – |
| 100 to 416 (≈ 42.4 to 177 µg/mL) | – | – | CN1CCN(c2cnc3nc(-c4cc(NC(=O)N5CCCC5)ccc4F)cn3n2)CC1 [Example 57, N-(4-fluoro-3-(2-(4-methylpiperazin-1-yl)imidazo[1,2-b][1,2,4]triazin-6-yl)phenyl) pyrrolidine-1-carboxamide] | 5.01 to 631 | – |
| 10 to 83 (≈ 4.09 to 34 µg/mL) | – | – | O=C(Nc1cnc2nc(-c3cc(NC(=O)N4CCCC4)ccc3F)cn2n1)C1CC1 [Example 58, N-(3-(2-(cyclopropane-carboxamido)imidazo [1,2-b][1,2,4]triazin-6-yl)-4-fluorophenyl) pyrrolidine-1-carboxamide] | 5.01 to 631 | – |
